Laboratory results as given in patent US20030027765A1, “Therapeutic peptides having a motif that binds specifically to non-acetylated H3 and H4 histones for cancer therapy” (priority 2000, published 2003).
“Also recorded” adds a separate entry of the source. One block for each molecule: values may come before it.

Assays:
[1] = target: T1, deacetylated H4 N-terminal tail (Homo sapiens, UniProt P62805); test: in vitro immuno-binding assay, deacetylated H4; conditions: for binding to deacetylated H4 N-terminus: FIG. 9
T1 construct: using acetylated and deacetylated forms of the H4 N-terminal tail

[2] = target: T2, histone H4 (Mus musculus, UniProt P62806); test: histone H4 acetylation in Na-butyrate treated C3H cells (immunoblot); assay type: cell-based, murine; conditions: absence of lunasin
T2 construct: endogenous in cells; host or cells: C3H 10T1/2 mouse embryo fibroblasts
Text: (§1) Deacetylated histones are substrates for histone acetylation and for chromatin remodelling which has been associated with eukaryotic transcriptional regulatory mechanisms (K Struhl, Genes Dev., vol. 12, 599,1998; M. Grunstein, Nature, vol. 389,349, 1997).

[3] = test system: histone H3; test: histone H3 acetylation in Na-butyrate treated MCF-7 cells (immunoblot); assay type: cell-based, human
Text: as §1

[4] = target: T3, histone H4 (Homo sapiens, UniProt P62805); test: histone H4 acetylation in Na-butyrate treated MCF-7 cells (immunoblot); assay type: cell-based; conditions: absence of lunasin
T3 construct: endogenous in cells; host or cells: MCF-7
Text: as §1

[5] = test system: histone H3; test: histone H3 acetylation in Na-butyrate treated C3H cells (immunoblot); assay type: cell-based, murine
Text: as §1

[6] = test system: C3H 10 T½ cells; test: cell transformation assay (carcinogen-induced foci formation); assay type: cell-based, murine; conditions: FIG. 6, FIG. 12
[7] = test system: murine embryo fibroblast cells; test: exogenous application of lunasin to growth media, immunostaining; assay type: cell-based
Text: (§2) Lunasin contains the cell adhesion motif RGD (arg-gly-asp). […] However, at this stage of mitosis, kinetochore assembly and spindle fiber attachment to centromeres had already transpired.

[8] = test system: C3H cells; test: lunasin treatment followed by E1A oncogene transfection (apoptosis); assay type: cell-based, murine; conditions: 20 h after transfection
Text: As a negative control, E1A with deleted conserved region 1 (E1AΔCR1) that abolishes the RB binding domain was likewise used in the transfection experiments (D. Trouche, T. Kouzidares, Proc. Natl. Acad. Sci., USA, vol. 93, 1439 (1996)).

[9] = test system: mice embryo fibroblast cells (C3H 10T½); test: cell adhesion assay with synthetic lunasin peptides; assay type: cell-based; conditions: C3H 10T½ cells, FIG. 2
Text: as §2

[10] = target: T4, tetra-acetylated H4 (Homo sapiens, UniProt P62805); test: in vitro immuno-binding assay, tetra-acetylated H4; conditions: FIG. 9
T4 construct: using acetylated and deacetylated forms of the H4 N-terminal tail

[11] = target: deacetylated H4 N-terminal tail peptide; test: in vitro immuno-binding assay, increasing dose of deacetylated H4 peptide (FIG. 10)
[12] = target: histone H3 in MCF-7 cells (human)
[13] = treated with lunasin for 24 h, then E1Awt

Molecule: NLS-trLunasin: truncated lunasin peptide with the helix substituted by a nuclear localization sequence (NLS) (LEEKQKKKMEKEQGRGDDDDDDDDD; Glycine max; NLS-trLunasin)
binding to deacetylated H4 N-terminus [1]: loss of binding to deacetylated H4

Molecule: trLunasin: truncated lunasin that contains only the reactive carboxyl end of the peptide (EKHIMEKIQGRGDDDDDDDDD; Glycine max; trLunasin)
anti-transformation property / efficacy in preventing foci transformation [6]: reduced efficacy
binding affinity to deacetylated H4 relative to trLunasin-del [1]: not significantly different
binding to deacetylated H4 N-terminus [1]: significant reduction in deacetylated H4 binding; also recorded: lower binding affinity

Molecule: Ser-Lys-Trp-Gln-His-Gln-Gln-Asp-Ser-Cys-Arg-Lys-Gln-Leu-Gln-Gly-Val-Asn-Leu-Thr-Pro-Cys-Glu-Lys-His-Ile-Met-Glu-Lys-Ile-Gln-Gly-Arg-Gly-Asp -Asp-Asp-Asp-Asp-Asp-Asp-Asp-Asp [Lunasin]
internalization into cells ([7]; applied exogenously to the growth media, FIG. 3): became internalized
chromosomal binding site of internalized peptide ([7]; applied exogenously, metaphase): preferentially binding to the telomeres of chromosomes during metaphase
effect on cell division and proliferation ([7]; exogenous application): did not affect cell division and proliferation
effect on kinetochore assembly ([7]; internalized lunasin): did not affect kinetochore assembly
reduction of H3 acetylation ([3]; MCF-7 cells, lunasin added prior to Na-butyrate treatment): 4 fold
acetylated H3 on immunoblots of acid-extracted proteins ([3]; Na-butyrate treated MCF-7 cells pretreated with 1 μM lunasin, FIG. 13): significant reduction
cell state after E1A-ΔCR1 transfection ([8]; presence of lunasin): normally dividing cells
Annexin V staining of non-adherent cells (apoptosis) [8, 13]: positive fluorescent staining for Annexin V-HITC
cell state after E1Awt transfection [8, 13]: preponderance of non-adherent cells
cell adhesion to C3H cells [9]: adhered to C3H cells in a dose-dependent manner
Na-butyrate-induced increase in H3 acetylation upon addition of lunasin ([5]; C3H cells): no observed increase
acetylated H3 on immunoblots of acid-extracted proteins ([5]; Na-butyrate treated C3H cells pretreated with 1 μM lunasin, FIG. 13): significant reduction

Molecule: Lunasin-GRG: lunasin with deleted RGD motif (SKWQHQQDSCRKQLQGVNLTPCEKHIMEKIQGDDDDDDDD)
binding to deacetylated H4 N-terminus [1]: high affinity
cell adhesion to C3H cells [9]: prevented cell adhesion
binding to tetra-acetylated H4 [10]: not to the tetra-acetylated H4

Molecule: Lunasin peptide
binding against trLunasin-del [11]: 3 x
acetylated H3 on immunoblots of acid-extracted proteins, Na-butyrate treated MCF-7 cells [12]: 4 fold

Continued, in another order:

increase of histone H4 acetylation [2]: 200 fold
increase of histone H4 acetylation [4]: 200 fold
Molecule: CCCC(=O)[O-].[Na+] [Na-butyrate, reference compound]
increase of H3 acetylation ([3]; MCF-7 cells, Na-butyrate treatment): around 400 fold
increase of H3 acetylation ([5]; C3H cells, Na-butyrate treatment): 100 fold

binding affinity to deacetylated H4 relative to NLS-trLunasin ([1]; FIG. 10): significantly higher affinity
Molecule: trLunasin-del: 10 amino acid peptide fragment spanning a helical domain upstream of the poly-aspartyl carboxyl end of lunasin (EKHIMEKIQG; Glycine max; trLunasin-del)
